Experimental data reported in patent US20250221957A1, “PS[…] AND THEIR USE FOR TREATING […] AND NE[…] DISORDERS” (Transcend Therapeutics, Inc., priority 2021, published 2025).
Read-outs that look alike come from different tables or passages of the source.

Experiments:
[1] = system: drug users / humans; conditions: cited from earlier work
[2] = system: Sprague Dawley rats; assay: Forced Swim Test (FST); format: in vivo, rat; conditions: for reduction in immobility (magnitude of the effect): single dose 30 min before testing
From the text: The Forced Swim Test (FST) is a classic, and the most used preclinical behavioral assay to screen compounds with antidepressant-like activity and has high predictive and face validity (Porsolt et al. (1977) Nature 266:730; Borsini and Meli (1988) Psychopharmacology 94:147). The premise of the FST is that when rats are placed into a cylinder filled with water, they will initially try to escape, but over time will become immobile. This increased immobility reflects behavioral despair, modeling a depressive-like state.
Animals: Male Sprague Dawley rats (Charles River Laboratories) weighing 180-200 g on arrival, were used for this study which took place at Melior Discovery (Exton, PA). Rats acclimated to their home cages for at least one week before testing, were maintained in a controlled environment on a 12 h light/dark cycle, with no more than 2 rats per cage. Animals received ad libitum access to food and water and were assigned randomly to treatment groups. Animal use and procedures were in accordance with established protocols approved by the IACUC committee, Melior Standard Operation Procedures (SOP), and Transcend Therapeutics.
Forced Swim Test (FST): In the FST trial, rats were be placed in a circular plexiglass container filled with water, with no means of escape. Water temperature was maintained at 22-25° C. and changed for every animal. After an acclimation period, rats were timed for inactivity (failure to struggle), activity, swim time and climbing time. Day 1 consisted of a 15 min acclimation trial, and Day 2 (24 h later) consisted of the 5 min test. A time sampling procedure was employed where animals were observed every 5 sec and scored for immobility, swimming, or climbing. Fluoxetine (10 mg/kg, IP, Sigma Aldrich) or 0.9% sterile saline vehicle (vehicle 3× group) were administered 23.5, 5, and 1 h before testing in the FST. […] The experimenter was blinded to treatment.
Statistical Analysis: Data for each parameter of the test (immobility, swimming, or climbing) is expressed as the mean±SEM. Differences between groups were determined by one-way ANOVA and post-hoc Tukey's test with a p-value of less than 0.05 indicating statistically significant differences.
Forced Swim Test: In the FST trial, rats were be placed in a circular plexiglass container filled with water, with no means of escape. Water temperature was maintained at 22-25° C. and changed for every animal. After an acclimation period, rats were timed for inactivity (failure to struggle), activity, swim time and climbing time. Day 1 consisted of a 15 min acclimation trial, and Day 2 (24 h later) consisted of the 5 min test. A time sampling procedure was employed where animals were observed every 5 sec and scored for immobility, swimming, or climbing. Fluoxetine (10 mg/kg, IP, Sigma Aldrich) or 0.9% sterile saline vehicle (vehicle 3× group) were administered 23.5, 5, and 1 h before testing in the FST. 2C-B (2.5, 10, or 20 mg/kg, IP, Cayman Chemical) or 0.9% saline vehicle (vehicle 1× group) were administered 30 min prior to FST testing. The experimenter was blinded to treatment.
Drug Treatment: Fluoxetine (10 mg/kg, IP, Sigma Aldrich) or 0.9% sterile saline vehicle were administered 23.5, 5, and 1 h before testing in the FST. […] Control animals received fluoxetine alone, methylone alone, or saline vehicle.
Forced Swim Test: In the FST trial, rats were be placed in a circular plexiglass container filled with water, with no means of escape. Water temperature was maintained at 22-25° C. and changed for every animal. After an acclimation period, rats were timed for inactivity (failure to struggle), activity, swim time and climbing time. The experimenter and scorer were blind to treatment group. Day 1 consisted of a 15 min acclimation trial, and Day 2 (24 h later) consisted of the 5 min test. A time sampling procedure was employed where animals were observed every 5 sec and scored for immobility, swimming, or climbing. […]

[3] = system: serotonergic terminals in the cortex and hippocampus; conditions: 25 mg/kg IP every 12 hours for 4 days; 2 weeks post-treatment; cited from earlier work
[4] = system: mice; assay: Fear extinction paradigm, mouse model of PTSD; format: in vivo; conditions: MBDB 5 mg/kg IP, day 2
From the text: (FIG. 9A) Schematic of experimental design. A single CS-US (tone-shock) pairing on day 1 was followed by 6 CS presentations in a novel context (context B). […] On day 3, the time spent freezing to the CS was quantified. […] (FIG. 9C) No locomotor changes were observed on day 3 (t(26)=1.073, p>0.05). Data are mean +/− SEM.
FIGS. 10A-10B: MBDB improves fear extinction in a mouse model of PTSD. A single CS-US (tone-shock) pairing on day 1 was followed by 6 conditioned stimulus (CS) presentations in a novel context (context B). MBDB or saline vehicle was injected 30 min prior to extinction training on day 2. The time spent freezing to the CS was quantified on […]. […] Data are mean +/− SEM. N=10 for MBDB group (5 mg/kg, IP) and N=16 for saline control group. **p<0.01 vs. vehicle control group.
Effective PTSD treatments facilitate the disassociation between a traumatic memory and the patient's fear response, making cues for the traumatic memory evoke less of a fear response. This is modeled in the mouse fear extinction paradigm (see FIG. 9A) which takes place over 3 days. On day 1 (fear conditioning), mice are trained to acquire a “traumatic memory,” namely associating the conditioned stimulus (CS, tone) to the unconditioned stimulus (US, foot shock). On day 2 (extinction training), they are trained to forget the traumatic memory association by presenting the CS 6 times (with no US) in a novel environment. On day 3 (extinction recall), the mice are “asked” if that tone (CS) still elicits a fearful response, as measured by the time spent freezing when the tone is presented. Less time freezing means better extinction recall. Drugs that improve extinction recall reduce freezing time on day 3, and, therefore, show potential as a PTSD treatment.

[5] = system: Sprague Dawley rats; conditions: cited from earlier work
[6] = molecular target: T1, Human serotonin 5HT2B receptor (Homo sapiens, UniProt P41595); conditions: literature values; read-out: reported Ki; cited from earlier work
T1 construct: host or cells: 5HT2B receptor expressing membranes

[7] = molecular target: T1, Human serotonin 5HT2B receptor; assay: Competitive radioligand binding to 5HT2B receptor membrane preparations; conditions: ratio of Ki values
Description: Human serotonin 5HT2B receptor membrane preparations were divided into aliquots. On the day of the assay, membranes were diluted at 1:200 in incubation buffer. […] To each well was added 150 μL membrane preparation, 50 μL test compound, non-specific compound, or buffer alone, as well as 50 μL radioligand. The plate was incubated at 35° C. for 90 minutes with gentle agitation. […] For each concentration of drug, non-specific binding was subtracted from total binding to give specific binding. […] Ki was subsequently calculated using the ChengPrusoff equation.

[8] = 13 of 77 deaths, meta-analysis; cited from earlier work
[9] = depending on the animal model used and dosing conditions; cited from earlier work
[10] = system: mice; conditions: MDMA 7.5 mg/kg 30 minutes prior to extinction training (Young 2015); cited from earlier work

T1 sequence (P41595 whole entry): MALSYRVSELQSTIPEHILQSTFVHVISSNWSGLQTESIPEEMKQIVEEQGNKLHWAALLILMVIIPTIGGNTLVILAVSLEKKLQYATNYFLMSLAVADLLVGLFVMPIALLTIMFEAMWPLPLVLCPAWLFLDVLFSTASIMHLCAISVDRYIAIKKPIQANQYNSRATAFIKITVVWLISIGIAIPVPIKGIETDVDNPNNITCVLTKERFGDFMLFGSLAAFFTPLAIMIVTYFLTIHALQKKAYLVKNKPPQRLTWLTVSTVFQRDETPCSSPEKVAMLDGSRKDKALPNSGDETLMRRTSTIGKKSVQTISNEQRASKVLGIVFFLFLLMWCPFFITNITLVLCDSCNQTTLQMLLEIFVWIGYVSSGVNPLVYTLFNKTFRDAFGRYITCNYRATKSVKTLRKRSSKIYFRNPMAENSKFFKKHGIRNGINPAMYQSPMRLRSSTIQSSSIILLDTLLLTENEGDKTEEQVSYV

## CCC(Cc1ccc2c(c1)OCO2)NC (racemic) [MBDB, N-methyl-1-(1,3-benzodioxol-5-yl)-2-aminobutane]
[1]; self-administered MBDB under supervision, 100 to 300 mg
  adverse effects: no serious adverse effects
[2]; MBDB IP 30 min before testing
  climbing: significantly reduced only at the highest dose
  swimming: robustly increased at all doses tested
[2]; MBDB IP 30 min before testing, all doses tested (15-30 mg/kg)
  immobility: significantly reduced immobility
[3]
  serotonergic terminals destroyed in the cortex and hippocampus: 55-60%
[4]
  extinction acquisition on the first trial of extinction training: improved extinction acquisition
  locomotor activity: small, but significant increase

## COc1cc(CCN)c(OC)cc1Br [2C-B, 4-Bromo-2,5-dimethoxyphenethylamine]
[1]; self-administered 2C-B, 10 to 20 mg, experienced drug users
  adverse effects: no serious adverse effects
[2]; 2C-B 2.5, 10, 20 mg/kg IP
  climbing: significantly decreased only in the high-dose group
[2]; 2C-B high-dose (20 mg/kg IP)
  reduction in immobility (magnitude of the effect): 53%
[2]; 2C-B mid-dose (10 mg/kg IP)
  reduction in immobility (magnitude of the effect): 50%
[2]; single dose of 2C-B 30 minutes before testing
  swimming: significant increase in swimming

## CCN(CC)C(=O)[C@@H]1C=C2c3cccc4[nH]cc(c34)C[C@H]2N(C)C1 [LSD, lysergic acid-N,N-diethylamide]
[5]; literature (Hibicke 2020; Yang 2013; Tizabi 2012)
  reduction in immobility in the FST, previous reports: 38%

## CC(N)Cc1ccc2c(c1)OCO2 (centres unmarked) [MDA]
[6]
  Ki: 100 nM
[7]
  greater affinity for the 5HT2B receptor compared with methylone: 37 times

## CNC(C)Cc1ccc2c(c1)OCO2 (centres unmarked) [MDMA, 3,4-Methylenedioxymethamphetamine]
[8]
  blood concentration in deaths attributable to MDMA alone: 478 to 53900 ng/mL
[9]
  half-life: 5 to 7 h
[7]
  greater affinity for the 5HT2B receptor compared with methylone: 7.5 times
[10]
  reduced freezing compared to saline injected controls (extinction recall): 35%
[5]; MDMA 5 mg/kg, Flinders Sensitive Line rats (Majumder 2011)
  reduction in immobility, reported: 45%
[5]; MDMA 5 mg/kg, Sprague Dawley rats (Majumder 2011)
  reduction in immobility, reported: 45%
[5]; MDMA 10 mg/kg, Flinders Sensitive Line rats (Majumder 2011)
  reduction in immobility, reported: 93%
[5]; MDMA 10 mg/kg, Sprague Dawley rats (Majumder 2011)
  reduction in immobility, reported: 78%

## CNCCC(Oc1ccc(C(F)(F)F)cc1)c1ccccc1 (centres unmarked) [fluoxetine, reference compound]
[2]; Example 8
  swimming behavior: significantly increased swimming behavior
[2]; fluoxetine 10 mg/kg IP at 23.5, 5 and 1 h before testing (Examples 6 and 7)
  reduction in immobility: 56%
[2]; fluoxetine alone, 10 mg/kg IP x3 (Example 8)
  reduced immobility compared to vehicle: 60%
